Assay [1] concerns the target T1, human mGluR2 (hmGluR2) (Homo sapiens, UniProt Q14416).
T1 construct: expressed in transfected cells; host or cells: HEK-293 cells, transient co-transfection by electroporation
In words: Ca++ functional assay, human mGluR2 transiently over-expressed in HEK-293 cells (agonist and negative allosteric modulator modes). In kind it is cell-based. The following applies: glutamate at EC80, intracellular calcium (Fluo4AM). The procedure, abridged:
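HEK-293 cells transiently co-transfected with hmGluR2, a chimeric G protein and two glutamate transporters; Fluo4-AM calcium fluorescence (485/525 nm) on FLIPR. Agonist mode judged against buffer, NAM mode against EC80 glutamate, 3 min recording; 20-concentration curves over 6 logs, variable-slope fit for IC50, duplicate, two independent runs.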
(In general: Calcium flux is commonly read through the fluorescence of an indicator in the cells.)

The target in assay [2] is T2, human mGluR3 (hmGluR3) (Homo sapiens, UniProt Q14832).
T2 construct: expressed in transfected cells; host or cells: HEK-293 cells, transient co-transfection by electroporation
T2 sequence (Q14832 23-879): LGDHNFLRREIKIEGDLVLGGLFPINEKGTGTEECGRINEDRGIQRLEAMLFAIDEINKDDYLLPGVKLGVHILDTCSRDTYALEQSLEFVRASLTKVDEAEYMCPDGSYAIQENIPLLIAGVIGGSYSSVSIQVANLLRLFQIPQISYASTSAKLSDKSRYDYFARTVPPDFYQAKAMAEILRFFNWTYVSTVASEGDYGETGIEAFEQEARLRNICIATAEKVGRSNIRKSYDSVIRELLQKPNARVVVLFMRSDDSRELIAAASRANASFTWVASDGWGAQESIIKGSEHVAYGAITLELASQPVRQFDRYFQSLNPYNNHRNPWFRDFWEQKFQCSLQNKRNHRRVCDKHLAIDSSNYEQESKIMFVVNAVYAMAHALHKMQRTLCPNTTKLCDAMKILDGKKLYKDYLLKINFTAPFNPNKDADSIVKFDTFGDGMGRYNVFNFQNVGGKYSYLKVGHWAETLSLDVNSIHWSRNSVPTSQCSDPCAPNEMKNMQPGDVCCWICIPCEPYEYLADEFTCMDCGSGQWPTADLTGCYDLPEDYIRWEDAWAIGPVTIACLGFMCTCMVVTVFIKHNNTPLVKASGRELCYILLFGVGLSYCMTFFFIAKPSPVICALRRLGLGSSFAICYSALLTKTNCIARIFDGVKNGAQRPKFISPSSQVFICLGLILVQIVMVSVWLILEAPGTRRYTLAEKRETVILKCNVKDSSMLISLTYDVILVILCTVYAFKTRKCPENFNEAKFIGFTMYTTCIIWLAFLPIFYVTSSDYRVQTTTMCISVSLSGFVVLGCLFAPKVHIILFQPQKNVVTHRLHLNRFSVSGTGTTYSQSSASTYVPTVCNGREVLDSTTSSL
In words: Ca++ functional assay, human mGluR3 transiently over-expressed in HEK-293 cells (agonist and negative allosteric modulator modes). In kind it is cell-based. The settings on record: glutamate at EC80, intracellular calcium (Fluo4AM). How it is done:
Example 127: Human mGluR2 and mGluR3 Evaluation Using Ca^++ Functional Assay
Examples of the present invention were tested successively for their agonist and negative allosteric modulator activities on human mGluR2 (hmGluR2) and mGluR3 (hmGluR3) transiently over-expressed in HEK-293 cells. Compounds exert agonist activity if, by themselves in absence of glutamate, they are able to activate hmGluR2 or hmGluR3; and they exert negative allosteric modulator activity if they decrease the action of glutamate (which is employed at its EC80 concentration).
Cell Culture and Transfection […]
Receptor activity is detected by changes in intracellular calcium measured using the fluorescent Ca^2+ sensitive dye, Fluo4AM (Molecular Probes).
On the day of the assay, culture medium is aspirated and replaced during 3 hours by medium without serum supplemented with 1% Glutamax, 1% Penicillin/Streptomycin and 1% non-essential amino acids. […] Addition of compounds and intracellular Ca^2+ measurements (excitation 485 nm, emission 525 nm) are performed by the fluorescence microplate reader FLIPRTetra (Molecular Devices).
Agonist and negative allosteric modulator activities of compounds are consecutively evaluated on the same cell plate. […] Then, cells are stimulated by an EC80 glutamate concentration and fluorescence is recorded for additional 3 minutes. […]

[3] abbreviates: read-out: IC50 for human mGluR2 (negative allosteric modulator activity).
Setting [4] is: read-out: hmGluR2 negative allosteric modulator activity IC50.

The source of these data is patent US10221179B2, “Substituted pyrazoloquinazolinones and pyrroloquinazolinones as allosteric modulators of group II metabotropic glutamate receptors” (DOMAIN THERAPEUTICS, priority 2014, dated 2019).

Where two headings read alike, the source gives them in different places.

T1 sequence (Q14416 19-872): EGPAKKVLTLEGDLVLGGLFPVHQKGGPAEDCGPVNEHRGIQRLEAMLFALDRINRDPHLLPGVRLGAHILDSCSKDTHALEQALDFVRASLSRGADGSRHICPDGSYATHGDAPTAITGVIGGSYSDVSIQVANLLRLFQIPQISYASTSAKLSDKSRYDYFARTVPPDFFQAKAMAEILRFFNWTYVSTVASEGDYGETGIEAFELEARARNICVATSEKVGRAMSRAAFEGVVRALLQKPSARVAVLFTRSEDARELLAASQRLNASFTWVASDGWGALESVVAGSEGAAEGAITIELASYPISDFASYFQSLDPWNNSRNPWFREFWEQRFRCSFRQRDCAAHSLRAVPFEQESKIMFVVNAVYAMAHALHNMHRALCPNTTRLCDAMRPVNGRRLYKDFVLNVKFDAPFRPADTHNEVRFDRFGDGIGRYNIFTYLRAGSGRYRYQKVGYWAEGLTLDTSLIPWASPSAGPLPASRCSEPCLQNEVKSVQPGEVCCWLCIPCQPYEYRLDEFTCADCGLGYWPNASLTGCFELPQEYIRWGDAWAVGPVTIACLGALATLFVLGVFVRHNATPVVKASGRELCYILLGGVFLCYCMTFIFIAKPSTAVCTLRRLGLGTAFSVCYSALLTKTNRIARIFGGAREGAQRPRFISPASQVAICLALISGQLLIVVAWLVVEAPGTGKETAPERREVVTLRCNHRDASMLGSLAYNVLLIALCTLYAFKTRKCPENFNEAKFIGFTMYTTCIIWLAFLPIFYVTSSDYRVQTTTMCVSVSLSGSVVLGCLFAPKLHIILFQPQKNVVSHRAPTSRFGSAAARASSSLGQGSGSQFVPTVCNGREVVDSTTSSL

`Cn1c(=O)c2ccccc2n2nc(-c3ccnc(Cl)c3)cc12` [Example 1, 2-(2-Chloro-pyridin-4-yl)-4-methyl-4H-pyrazolo[1,5-a]quinazolin-5-one]: the IC50 in assay [1] (setting [3]) is under 0.1 µM; in assay [1] (setting [4]) it was under 1 µM; in assay [2], over 1 µM.

As to `C=Cc1cc(-c2cc3n(C)c(=O)c4ccccc4n3n2)ccn1` [Example 9, 4-Methyl-2-(2-vinyl-pyridin-4-yl)-4H-pyrazolo[1,5-a]quinazolin-5-one], the IC50 in assay [1] (setting [3]) was under 0.1 µM; in assay [1] (setting [4]) it was under 1 µM; in assay [2], over 1 µM.

In general, IC50 refers to the concentration at which inhibition is half-maximal.
